The results in this text go back to patent US20110044938A1 (NYCOMED GMBH, priority 2006, published 2011).

Test [1] concerns RKO (RKOp27) human colon adenocarcinoma cells. The test is described as follows: Alamar Blue cell viability assay, anti-proliferative/cytotoxic activity on proliferating RKO subclones. It is filed as cell-based. As to conditions: RKOp27, 72 h, RKO p27 uninduced (proliferating) cells, value = class bound given in Table A, read-out: −logIC50 RKO p27 uninduced (proliferating) (converted). The essentials: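 Alamar Blue fluorescence (ex 544, em 590 nm) after 72 h compound exposure at 37 °C, 5% CO2, normalised to untreated controls set at 100%. Cells were seeded at 5000 per well and dosed 24 h later with serial semi-logarithmic dilutions in 10% FCS DMEM, four replicates each. −log IC50 [mol/l] was derived from concentration-effect curves.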
(In general: Resazurin is reduced to fluorescent resorufin, in cell work by metabolically active cells.)

In test [2] the test system is subclones of RKO colon adenocarcinoma cells (RKOp27 or RKOp21) arrested by Ponasterone A. The test is described as follows: Alamar Blue cell viability assay, cell cycle specific mode of action: cells arrested by ectopic p27Kip1 induced by Ponasterone A versus proliferating cells. The following applies: Homo sapiens, RKO p27 induced (arrested) cells, 10 μM Ponasterone A, 72 hours, value = class bound given in Table A, read-out: −logIC50 RKO p27 induced (arrested) (converted). Format: cell-based. The essentials: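 Viability of proliferating versus Ponasterone A (10 μM)-arrested RKOp27/RKOp21 cells after 72 h compound exposure at 37° C, in quadruplicate. Read-out is Alamar Blue fluorescence (544/590 nm) normalised to untreated cells = 100%; values as −log IC50.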

Turning to `Cc1cc(CNC(=O)OCC2CCc3c(sc(NC(=O)/C=C/c4cnccc4C)c3C#N)C2)no1` (centres unmarked) [Example 134, (5-Methyl-isoxazol-3-ylmethyl)-carbamic acid 3-cyano-2-[(E)-3-(4-methyl-pyridin-3-yl)-allanoylamino]-4,5,6,7-tetrahydro-benzo[b]thiophen-6-ylmethyl ester], the values for the IC50 in test [1] and in test [2] were not above 0.501 µM and not below 100 µM, respectively.
In the same order, the values of `Cc1cc(CNC(=O)OCC2CCc3c(sc(NC(=O)CC(C)c4cccnc4)c3C#N)C2)no1` (centres unmarked) [Example 282, (5-Methyl-isoxazol-3-ylmethyl)-carbamic acid 3-cyano-2-(3-pyridin-3-yl-butanoylamino)-4,5,6,7-tetrahydro-benzo[b]thiophen-6-ylmethyl ester] are not above 0.501 µM and not below 100 µM.
In the same order, the values of `N#Cc1c(NC(=O)/C=C/c2cccnc2)sc2c1CC[C@@H](COC(=O)N1CCCC1)C2` [Example 68b, Pyrrolidine-1-carboxylic acid (R)-3-cyano-2-((E)-3-pyridin-3-yl-allanoylamino)-4,5,6,7-tetrahydro-benzo[b]thiophen-6-ylmethyl ester] are not above 0.501 µM and not below 100 µM.
With `N#Cc1c(NC(=O)/C=C/c2cccnc2)sc2c1CCC(OC(=O)N1CC[C@@H](O)C1)C2` (stereo partly drawn) [Example 147, (R)-3-Hydroxy-pyrrolidine-1-carboxylic acid 3-cyano-2-((E)-3-pyridin-3-yl-allanoylamino)-4,5,6,7-tetrahydro-benzo[b]thiophen-6-yl ester], the IC50 was 0.501 to 2 µM in test [1] and not below 100 µM in test [2].
In the same order, the values of `N#Cc1c(NC(=O)/C=C/c2cccnc2)sc2c1CCC(OC(=O)N1CCC(O)CC1)C2` (centres unmarked) [Example 96, 4-Hydroxy-piperidine-1-carboxylic acid 3-cyano-2-((E)-3-pyridin-3-yl-allanoylamino)-4,5,6,7-tetrahydro-benzo[b]thiophen-6-yl ester] are not above 0.501 µM and not below 100 µM.
In the same order, the values of `Cn1cc(CNC(=O)OCC2CCc3c(sc(NC(=O)/C=C/c4cccnc4)c3C#N)C2)cn1` (centres unmarked) [Example 50, (1-Methyl-1H-pyrazol-4-ylmethyl)-carbamic acid 3-cyano-2-((E)-3-pyridin-3-yl-allanoylamino)-4,5,6,7-tetrahydro-benzo[b]thiophen-6-ylmethyl ester] are not above 0.501 µM and not below 100 µM.
For the compound `COc1cccc(CCC(=O)Nc2sc3c(c2C#N)CCC(OC(=O)NCc2conc2C)C3)c1` (centres unmarked) [Example 228, (3-Methyl-isoxazol-4-ylmethyl)-carbamic acid 3-cyano-2-[3-(3-methoxy-phenyl)-propanoylamino]-4,5,6,7-tetrahydro-benzo[b]thiophen-6-yl ester], the IC50 in test [1] was not above 0.501 µM; in test [2], not below 100 µM.
In the same order, the values of `CCOc1ccccc1CCC(=O)Nc1sc2c(c1C#N)CCC(OC(=O)NCc1cn(C)cn1)C2` (centres unmarked) [Example 168, (1-Methyl-1H-imidazol-4-ylmethyl)-carbamic acid 3-cyano-2-[3-(2-ethoxy-phenyl)-propanoylamino]-4,5,6,7-tetrahydro-benzo[b]thiophen-6-yl ester] are not above 0.501 µM and not below 10 µM.
Turning to `CC(CC(=O)Nc1sc2c(c1C#N)CCC(OC(=O)NCc1ccncc1)C2)c1ccccc1` (centres unmarked) [Example 289, Pyridin-4-ylmethyl-carbamic acid 3-cyano-2-(3-phenyl-butanoylamino)-4,5,6,7-tetrahydro-benzo[b] thiophen-6-yl ester], the results for the IC50 in test [1] and in test [2] were not above 0.501 µM and not below 10 µM, respectively.
As to `N#Cc1c(NC(=O)/C=C/c2cccnc2)sc2c1CCC(OC(=O)NCC1CCOCC1)C2` (centres unmarked) [Example 22, (Tetrahydro-pyran-4-ylmethyl)-carbamic acid 3-cyano-2-((E)-3-pyridin-3-yl-allanoylamino)-4,5,6,7-tetrahydro-benzo[b]thiophen-6-yl ester], the IC50 was 0.501 to 2 µM in test [1] and not below 100 µM in test [2].
